Measured values from patent publication US7005546B2, “Acetamidobenzamide compounds for neurodegenerative disorders” (Renovis, Inc., priority 1995, dated 2006).

Columns and labels:
[1] = system: MPTP-induced reduction in striatal dopamine, C57BL/6J mice; test: Dopamine depletion studies (MPTP mouse model of Parkinson's disease); format: in vivo; conditions: for preventing dopamine depletion following MPTP challenge (in words): Table 1 conditions, 30 mg/kg p.o.
Protocol: These findings have led to the development of an assay for agents effective in treating dopamine-associated neurodegenerative disorders, such as Parkinson's disease. In this assay, test animals are given an amount of MPTP adequate to severely depress their dopamine levels. Test compounds are administered to determine if they are capable of preventing the loss of dopamine in the test animals. To the extent that dopamine levels are retained, a compound can be considered to be an effective agent for slowing or delaying the course of neurodegenerative disease, e.g., Parkinson's disease. C57BL/6J mice were pretreated with either vehicle (1% methyl cellulose) or a drug (p.o.) 30 min before MPTP. MPTP was dissolved in isotonic saline (0.9%) and given subcutaneously as a single dose of 15 mg free base/kg body weight to produce a reduction in striatal dopamine to about 0.5 nanomoles/mg protein. Groups of mice (n=8–10 per group) received either vehicle plus saline, vehicle plus MPTP or drug plus MPTP. Seventy two hours after receiving MPTP, mice were sacrificed using cervical dislocation and the striata were excised. The tissue was homogenized in 0.4 N perchloric acid, centrifuged, and the supernatant analyzed by high performance liquid chromatography/electro-chemical detection (HPLC/ED) for dopamine levels. Supernatants were stored in a −90° C. freezer between the time of collection and analysis. The drugs were combined with methyl cellulose and were homogenized in water for dosing. The dosage amount ranged from 10 to 50 mg/kg for CPI1160, CPI1189 and CPI1234, and from 50 to 100 mg/kg for CPI1020.

[2] = In vivo biotransformation of orally administered CPI1020, blood of rats; conditions: rats given CPI1020 orally
From the text: (§1) Commonly owned U.S. patent application Ser. No. 08/227,777, referred to above, discloses several benzamides useful in treating neurodegenerative diseases based on their protective action in the MPTP mouse model of Parkinson's disease. […] This compound is likely formed in the body by reduction of the ring nitro of CPI1020 to an amino moiety (CPI1160) followed by acetylation of the amino function.

[3] = In vivo biotransformation of orally administered CPI1020, blood of mice; conditions: mice given CPI1020 orally
From the text: as §1

| SMILES | protection from the neurotoxic action of MPTP (% of control) ([1]; 50 mg/kg p.o., 15 mg/kg MPTP model) | preventing dopamine depletion following MPTP challenge (in words) [1] | melting point | in vivo biotransformation product of CPI1020 in blood [2] | in vivo biotransformation product of CPI1020 in blood [3] |
| --- | --- | --- | --- | --- | --- |
| CC(C)(C)NC(=O)c1ccc([N+](=O)[O-])cc1 [CPI1020, N-tert-butyl-4-nitrobenzamide, reference compound] | 65 % of control | – | – | – | – |
| CC(C)(C)NC(=O)c1ccc(N)cc1 [CPI1160, N-tert-butyl-4-aminobenzamide] | – | effective | 125 to 127 °C | – | – |
| CC(=O)Nc1ccc(C(=O)NC(C)(C)C)cc1 [CPI1189, N-tert-butyl-4-acetamidobenzamide] | – | effective | – | found in the blood | found in the blood |
| CC(=O)Nc1cccc(C(=O)NC(C)(C)C)c1 [CPI1234, N-tert-butyl-3-acetamidobenzamide] | – | effective | 194 to 195 °C | – | – |
